Measured values: US20110064721A1, “CATHEPSIN-D NEUROPROTECTION” (THE UAB RESEARCH FOUNDATION, priority 2007, published 2011)
“Also recorded” adds a separate entry of the source.

Columns and labels:
dopaminergic neurons = assay: DA neurodegeneration analysis in α-syn transgenic worms; assay type: in vivo, C. elegans; details: for protection from α-syn-induced dopaminergic neurodegeneration: 7 day old worms overexpressing human cDNA with α-syn
Experimental: For the DA neurodegeneration analysis, strain UA54 [baEx45; Pdat-1::α-syn, Pddat-1::gfp, Pdat-1 j::CD, rol-6 (su1006)], UA90 [baEx69; Pdat-1::α-syn, Pdat-1j::CD D295R, rol-6 (su1006)], UA91 [baEx70; Pdat-1::α-syn, Pdat-1::CD F2291, rol-6 (su1006)], UA53 [baEx44; Pdat-1::α-syn, rol-6 (su1006)], and UA55 [baEx46; Pdat-1::α-syn, Pdat-1::CL, rol-6 (su1006)] were generated by injecting 50 μg/ml of expression plasmid containing the human cathepsin cDNA and 50 μg/ml of rol-6 into an integrated line of UA44 [baInl1; Pdat-1::α-syn, (Cao et al., J. Neurosci. 25:3801-12 (2005))]. Three stable lines were randomly selected for neurodegeneration analysis. The 6 anterior DA neurons (4 CEP and 2 ADE neurons) of 30 animals/trial were examined for neurodegeneration when the animals were 7 days old. 90 animals from each of three CD (or CD D295R, CD F229I, CB, and CL) transgenic lines were analyzed (3 lines×3 trials of 30 animals/trial=270 total animals scored).
It was further investigated whether human CD attenuates the loss of dopaminergic neurons in a C. elegans model of α-syn-induced neurodegeneration (Cooper et al., Science 313:324-8 (2006)).

α-syn = assay: Western blot of α-syn after CD co-transfection; assay type: cell-based, human; details: SHSY5Y cells, co-expression with α-syn-GFP
Experimental: (§1) Cell culture and transfection: The human neuroblastoma SHSY5Y cells were transfected in triplicate by vector alone, GFP-α-syn, pCMV-CD, or co-transfected by GFP-α-syn (or A53T, MOP, Y125A mutant α-syn) and pCMV-CD (or mutant CD) by Amaxa method as described by the vendor. Transfection efficiency was ˜80% as assessed by cells with or without GFP. Seventy-two (72) hours after transfection, cells were harvested. For chloroquine (10 μM) treatment, the chemicals were added 48 hours after transfection, cells were harvested […]. Live cells were counted by trypan blue exclusion. Relative cell survival was calculated as number of live cells after transfection by pCMV-CD and/or GFP-α-syn divided by live cells after transfection by vector alone. Elevated expression of α-syn or cathepsins was confirmed by Western blot analyses using whole cell extracts.
Western blot: Wildtype and CD−/− cortex (n≧3 each genotype) were homogenized in 10 volumes of ice-cold lyses buffer (50 mM Tris-HCl pH 7.4, 175 mM NaCl, 5 mM EDTA), sonicated for 10 seconds, add TritonX-100 to 1% and incubated for 30 minutes on ice. Homogenates were then centrifuges at 15,000 g for 15 min at 4° C. to separate supernatants (fractions soluble in 1% TritonX-100) and pellets (TritonX-100-insoluble fractions) as described in Giasson et al., Neuron 34:521-33 (2002). Pellets were resuspended in lyses buffer containing 2% SDS. […]

SHSY5Y cells = assay: Cell death/survival after transfection, trypan blue exclusion; assay type: cell-based, human
Experimental: as §1
Overexpression of CD is neuroprotective against α-syn toxicity in mammalian cells. Excessive α-syn induces neuron death in cell cultures, and in a variety of genetic and viral delivery based animal models. To examine the potential of elevating CD level as a means to reduce α-syn-induced cell death, human neuroblastoma SHSY5Y cells were transfected with α-syn, in the absence or presence of increased CD expression (FIG. 4B). Similar to previous studies of α-syn overexpression in yeast, worms and rat neurons, it was observed that overexpression of wildtype α-syn induced robust cell death in SHSY5Y cells.
α-syn point mutation at the major CD cleavage site results in resistance to CD neuroprotection. α-syn is rich in hydrophobic amino acids (52%) and is natively unfolded. CD has a known specificity in recognizing hydrophobic residues. Although α-syn contains many putative CD cleavage sites, the main cleavage occurs at A124-Y125 (Hossain et al., J. Alzheimers Dis. 3:577-584 (2001)). It was observed that CD is also protective against PD-causing mutant α-syn induced-cell death in SHSY5Y cells (FIG. 4D). […] Furthermore, CD is ineffective at attenuating chloroquine- or staurorosporine-induced cell death (FIG. 4D).

Substance | protection from α-syn-induced dopaminergic neurodegeneration (dopaminergic neurons) | percentage of worms exhibiting the wildtype neuronal complement of all 6 anterior DA neurons (dopaminergic neurons; 7 day old worms overexpressing α-syn in DA neurons, n=270, α-syn alone 15-16%) [%] | truncation/cleavage of α-syn-GFP (α-syn) | staurosporine-induced cell death (SHSY5Y cells; 2 μM staurosporine) | chloroquine-induced cell death (SHSY5Y cells; 10 μM chloroquine) | A30P mutant α-syn-induced cell death (SHSY5Y cells; co-transfection with A30P mutant α-syn) | A53T mutant α-syn-induced cell death (SHSY5Y cells; co-transfection with A53T mutant α-syn) | Y125A mutant α-syn-induced cell death (SHSY5Y cells; co-transfection with Y125A mutant α-syn (CD cleavage site)) | protection against α-syn overexpression-induced cell death (SHSY5Y cells; wildtype GFP-α-syn co-transfection, 72 hours, viable cells by trypan blue)
CL: related human cathepsin gene product, representative lysosomal cysteine protease, overexpressed in worms | did not attenuate dopaminergic neuron death; also recorded: did not have the same effect as the wildtype CD |  |  |  |  |  |  |  | 
D295R: enzymatic mutant of CD, human cDNA overexpressed in transgenic worms | did not attenuate dopaminergic neuron death; also recorded: did not have the same effect as the wildtype CD |  |  |  |  |  |  |  | 
CD: principal lysosomal aspartate protease; human CD overexpressed by transfection or transgene (pCMV-CD) | significantly protected against dopaminergic neurodegeneration; also recorded: protects worms from neurodegeneration | 30 | produced a cleavage product of α-syn-GFP; also recorded: resulted in truncation of α-syn-GFP | ineffective; also recorded: does not reduce | ineffective; also recorded: does not reduce | protective; also recorded: reduced | protective; also recorded: reduced | resists neuroprotection by elevated CD; also recorded: does not reduce | provided significant protection; also recorded: protected against α-syn overexpression-induced cell death
